Reference: patent EP0386657A1, “Preparation for treating systemic lupus erythematosus” (MECT CORPORATION, priority 1989, dated 1990)
Like-named read-outs stand apart in the source and are kept apart here.

Legend:
[1] = acute toxicity test, guinea pig; details: in vivo, iv, 14 days observed, read-out: LD₅₀
Description: (§1) Acute toxicity tests of sodium N-acetylneuraminate against mouse, rat and guinea pig due to oral, subcutaneous injection, intraperitoneal injection, intravenous injection and inhalation were effected as shown below. • (1) Animals to be tested ICR mouse 6 weeks old SD rat 6 weeks old Hartley guinea pig 6 weeks old • (2) Chemicals concentration 20 % (w/v) dissolved in distilled water • (3) Animal number per one level Ten • (4) Terms observed 14 days • (5) Calculation method of LD₅₀ Probit method

[2] = acute toxicity test, mouse; assay type: in vivo; details: in vivo, male, 14 days observed, read-out: LD₅₀
Description: as §1

[3] = system: ICR mouse; assay: acute toxicity test, mouse; assay type: in vivo; details: female, 14 days observed
Description: as §1

[4] = system: passive Arthus reaction; assay: passive Arthus reaction (bleeding of skin); assay type: in vivo, Male Hartley guinea pig
Experimental: Male Hartley guinea pig weighing 300 to 400 g was used.
According to the conventional method, Anti-OA (rabbit) was prepared. That is, by using New Zealand strain rabbits having a weight of 2.0 to 2.2 kg, 1 ml of an emulsion comprising 20 mg of OA and Freund complete adjuvant (available from DIFCO LABORATORIES) was subcutaneously injected to back side portion and active sensitization was effected for total 4 times for every two weeks.
After two weeks from the final sensitizing date, blood was gathered from common carotid artery and after separation of antiserum, it was stored under freezing at -20°C by the usage for experiment.
The passive Arthus reaction was effected according to the method of Katayama et al. [S. Katayama, et al., Arzneim.-Forsh., vol. 31, p. […] However, in order to cause sufficient reaction, change were added to a cocentration of OA solution. That is, sensitization was effected by intravenously injecting 1 ml of antiserum stock solution and 30 minutes after, the reaction was caused by intradermally injecting respective 0.05 ml of OA solutions, each containing 0.025 mg and 0.05 mg of OA respectively, to each one portion of an abdominal part and total two portions of guinea pig at which hair was cut at the day before. At this time, a physiological saline solution was intradermal injected simultaneously in the same manner as a blank. […] And, the value was calibrated by the blank to be made as the experimental results.
1, 5 or 20 mg/kg of sodium N-acetylneuraminate, or physiological saline solution (1 mg/kg) as a control was intravenously injected before 30 minutes of antigen-challenge or immediately after sensitization.
Also, Student's t-test was employed for significant test and p < 0.05 was made as statistically significant.

[5] = system: SD rat; assay: acute toxicity test, rat; assay type: in vivo
Description: as §1
(§2) Inhalation is effected by exposing powder to be tested for one hour.

[6] = acute toxicity test, rat; assay type: in vivo; details: in vivo, male, 14 days observed, read-out: LD₅₀
Description: as §1, §2

[7] = simple acute toxicity test, intravenous injection to mouse; assay type: in vivo, ddy male mouse; details: mouse, in vivo, observed 7 days, 3 mice, read-out: Final death rate (converted)
Experimental: (§3) Simple acute toxicity test of the agent to be tested due to intravenous injection to mouse was effected as shown below.
(§4) • (1) Agents to be tested Lithium salt, potassium salt, barium salt and magnesium salt of N-acetylneuraminic acid (all available from MECT Corporation) were used. • (2) Animal for experiment ddy male mouse Weight at initial of the test : 17.7 to 21.1 g Animal number per one level : 3 • (3) Room temperature : 23 ± 1 °C, Humidity : 55 ± 7 % • (4) Administration route : intravenous • (5) Administration method and amount thereof The above agent to be tested was dissolved with a physiological saline solution, and that which is prepared so as to become the administration amount of 0.2 ml per 20 g of mouse weight was injected into a tail vein. An administered amount was made to three levels of 500, 1000 and 2000 mg/kg. • (6) Observation of general condition and death condition Observations of the general condition and presence or absence of death were conducted from immediately after administration to after 7 days.

[8] = system: ddy male mouse; assay: as above; assay type: in vivo; details: 3 mice; for Final death rate: observed 7 days
Experimental: as §3, §4

SMILES: CC(=O)N[C@H]1[C@H]([C@H](O)[C@H](O)CO)OC(O)(C(=O)[O-])C[C@@H]1O.[Na+] (stereo partly shown)
- LD50 at 336 h [1]: > 5000 mg/kg
- LD50 at 336 h ([2]; ip, i.p.): > 5000 mg/kg
- LD50 at 336 h ([2]; iv, i.v.): > 5000 mg/kg
- LD50 at 336 h ([2]; po, p.o.): > 5000 mg/kg
- LD50 at 336 h ([2]; sc, s.c.): > 5000 mg/kg
- LD₅₀ ([3]; i.p.): >5,000 mg/kg
- LD₅₀ ([3]; i.v.): >5,000 mg/kg
- LD₅₀ ([3]; p.o.): >5,000 mg/kg
- LD₅₀ ([3]; s.c.): >5,000 mg/kg
- bleeding of skin ([4]; 20 mg/kg intravenously, guinea pig): remarkable
- bleeding of skin ([4]; 1, 5 or 20 mg/kg intravenously, 30 minutes before antigen challenge, guinea pig, Fig. 1 and Fig. 2): depressed depending on an amount to be used
- inhibiting effect on bleeding of skin ([4]; 24 hours after antigen challenge, guinea pig): continued even after 24 hours from antigen challenge
- LD₅₀ ([5]; female, i.p., 14 days observed): >5,000 mg/kg
- LD₅₀ ([5]; female, i.v., 14 days observed): >5,000 mg/kg
- LD₅₀ ([5]; female, inhalation, powder exposure for one hour): >4,000 mg/m³
- LD₅₀ ([5]; female, p.o., 14 days observed): >5,000 mg/kg
- LD₅₀ ([5]; female, s.c., 14 days observed): >5,000 mg/kg
- LD₅₀ ([5]; male, inhalation, powder exposure for one hour): >4,000 mg/m³
- LD50 at 336 h ([6]; ip, i.p.): > 5000 mg/kg
- LD50 at 336 h ([6]; iv, i.v.): > 5000 mg/kg
- LD50 at 336 h ([6]; po, p.o.): > 5000 mg/kg
- LD50 at 336 h ([6]; sc, s.c.): > 5000 mg/kg

SMILES: CC(=O)NC1C(O)CC(O)(C(=O)O)OC1C(O)C(O)CO (stereo not shown) [Barium N-acetylneuraminate]
- mortality at 168 h ([7]; 500 mg/kg intravenous): 100%

SMILES: CC(=O)N[C@H]1[C@H]([C@H](O)[C@H](O)CO)OC(O)(C(=O)[O-])C[C@@H]1O.[Li+] (stereo partly shown) [Lithium N-acetylneuraminate]
- Died number with a lapse of time ([8]; 500 mg/kg intravenous, 1 hrs): 0
- Died number with a lapse of time ([8]; 500 mg/kg intravenous, 3 hrs): 0
- Died number with a lapse of time ([8]; 500 mg/kg intravenous, 6 hrs): 0
- Died number with a lapse of time ([8]; 500 mg/kg intravenous, 24 hrs): 0
- Died number with a lapse of time ([8]; 500 mg/kg intravenous, 2 days): 0
- Died number with a lapse of time ([8]; 500 mg/kg intravenous, 3 days): 0
- Died number with a lapse of time ([8]; 500 mg/kg intravenous, 4 days): 0
- Died number with a lapse of time ([8]; 500 mg/kg intravenous, 5 days): 0
- Died number with a lapse of time ([8]; 500 mg/kg intravenous, 6 days): 0
- Died number with a lapse of time ([8]; 500 mg/kg intravenous, 7 days): 0
- Final death rate ([8]; 500 mg/kg intravenous): 0/3
- Died number with a lapse of time ([8]; 1000 mg/kg intravenous, 1 hrs): 0
- Died number with a lapse of time ([8]; 1000 mg/kg intravenous, 3 hrs): 0
- Died number with a lapse of time ([8]; 1000 mg/kg intravenous, 6 hrs): 0
- Died number with a lapse of time ([8]; 1000 mg/kg intravenous, 24 hrs): 0
- Died number with a lapse of time ([8]; 1000 mg/kg intravenous, 2 days): 0
- Died number with a lapse of time ([8]; 1000 mg/kg intravenous, 3 days): 0
- Died number with a lapse of time ([8]; 1000 mg/kg intravenous, 4 days): 0
- Died number with a lapse of time ([8]; 1000 mg/kg intravenous, 5 days): 0
- Died number with a lapse of time ([8]; 1000 mg/kg intravenous, 6 days): 0
- Died number with a lapse of time ([8]; 1000 mg/kg intravenous, 7 days): 0
- Final death rate ([8]; 1000 mg/kg intravenous): 0/3
- Died number with a lapse of time ([8]; 2000 mg/kg intravenous, 1 hrs): 0
- Died number with a lapse of time ([8]; 2000 mg/kg intravenous, 3 hrs): 0
- Died number with a lapse of time ([8]; 2000 mg/kg intravenous, 6 hrs): 0
- Died number with a lapse of time ([8]; 2000 mg/kg intravenous, 24 hrs): 0
- Died number with a lapse of time ([8]; 2000 mg/kg intravenous, 2 days): 0
- Died number with a lapse of time ([8]; 2000 mg/kg intravenous, 3 days): 0
- Died number with a lapse of time ([8]; 2000 mg/kg intravenous, 4 days): 0
- Died number with a lapse of time ([8]; 2000 mg/kg intravenous, 5 days): 0
- Died number with a lapse of time ([8]; 2000 mg/kg intravenous, 6 days): 0
- Died number with a lapse of time ([8]; 2000 mg/kg intravenous, 7 days): 0
- Final death rate ([8]; 2000 mg/kg intravenous): 0/3

SMILES: CC(=O)NC1C(O)CC(O)(C(=O)O)OC1C(O)C(O)CO (stereo not shown) [Magnesium N-acetylneuraminate]
- mortality at 168 h ([7]; 1000 mg/kg intravenous): 100%
- mortality at 168 h ([7]; 2000 mg/kg intravenous): 100%

SMILES: CC(=O)N[C@H]1[C@H]([C@H](O)[C@H](O)CO)OC(O)(C(=O)O)C[C@@H]1O (stereo partly shown) [N-acetylneuraminic acid]
- inhibiting effect to Arthus reaction ([4]; general statement, in vivo): has inhibiting effect to Arthus reaction

SMILES: CC(=O)N[C@H]1[C@H]([C@H](O)[C@H](O)CO)OC(O)(C(=O)[O-])C[C@@H]1O.[K+] (stereo partly shown) [Potassium N-acetylneuraminate]
- mortality at 168 h ([7]; 1000 mg/kg intravenous): 100%
- mortality at 168 h ([7]; 2000 mg/kg intravenous): 100%
- Died number with a lapse of time ([8]; 500 mg/kg intravenous, 1 hrs): 0
- Died number with a lapse of time ([8]; 500 mg/kg intravenous, 3 hrs): 0
- Died number with a lapse of time ([8]; 500 mg/kg intravenous, 6 hrs): 0
- Died number with a lapse of time ([8]; 500 mg/kg intravenous, 24 hrs): 0
- Died number with a lapse of time ([8]; 500 mg/kg intravenous, 2 days): 0
- Died number with a lapse of time ([8]; 500 mg/kg intravenous, 3 days): 0
- Died number with a lapse of time ([8]; 500 mg/kg intravenous, 4 days): 0
- Died number with a lapse of time ([8]; 500 mg/kg intravenous, 5 days): 0
- Died number with a lapse of time ([8]; 500 mg/kg intravenous, 6 days): 0
- Died number with a lapse of time ([8]; 500 mg/kg intravenous, 7 days): 0
- Final death rate ([8]; 500 mg/kg intravenous): 0/3
- Died number with a lapse of time ([8]; 1000 mg/kg intravenous, 1 hrs): 3
- Died number with a lapse of time ([8]; 1000 mg/kg intravenous, 3 hrs): 0
- Died number with a lapse of time ([8]; 1000 mg/kg intravenous, 6 hrs): 0
- Died number with a lapse of time ([8]; 1000 mg/kg intravenous, 24 hrs): 0
- Died number with a lapse of time ([8]; 1000 mg/kg intravenous, 2 days): 0
- Died number with a lapse of time ([8]; 1000 mg/kg intravenous, 3 days): 0
- Died number with a lapse of time ([8]; 1000 mg/kg intravenous, 4 days): 0
- Died number with a lapse of time ([8]; 1000 mg/kg intravenous, 5 days): 0
- Died number with a lapse of time ([8]; 1000 mg/kg intravenous, 6 days): 0
- Died number with a lapse of time ([8]; 1000 mg/kg intravenous, 7 days): 0
- Final death rate ([8]; 1000 mg/kg intravenous): 3/3
- Died number with a lapse of time ([8]; 2000 mg/kg intravenous, 1 hrs): 3
- Died number with a lapse of time ([8]; 2000 mg/kg intravenous, 3 hrs): 0
- Died number with a lapse of time ([8]; 2000 mg/kg intravenous, 6 hrs): 0
- Died number with a lapse of time ([8]; 2000 mg/kg intravenous, 24 hrs): 0
- Died number with a lapse of time ([8]; 2000 mg/kg intravenous, 2 days): 0
- Died number with a lapse of time ([8]; 2000 mg/kg intravenous, 3 days): 0
- Died number with a lapse of time ([8]; 2000 mg/kg intravenous, 4 days): 0
- Died number with a lapse of time ([8]; 2000 mg/kg intravenous, 5 days): 0
- Died number with a lapse of time ([8]; 2000 mg/kg intravenous, 6 days): 0
- Died number with a lapse of time ([8]; 2000 mg/kg intravenous, 7 days): 0
- Final death rate ([8]; 2000 mg/kg intravenous): 3/3
